{
  "source": "patent US20160279124A1",
  "about": "“Method for Treating Addiction” (priority 2015, published 2016)",
  "origin": "cited, not measured here",
  "system": "opioid use",
  "conditions": "clinic and office based medical detox and Naltrexone treatment: pill, injectable and implant; for opioid use",
  "data": [
    {"smiles": "O=C1CC[C@@]2(O)[C@H]3Cc4ccc(O)c5c4[C@@]2(CCN3CC2CC2)[C@H]1O5", "note": "[Naltrexone]", "values": [
      {"measurement": "Success", "value": 8, "unit": "% for"}
    ]}
  ]
}
